From patent US20260306460A1, “COMPOSITION FOR REMOVING AND INHIBITING SENESCENT CELLS, AND USES THEREOF” (LIFECEUTIX CO., LTD., priority 2023, published 2026)

Legend:
[1] = tested on: non-senescent proliferating human cells; assay: Effect on non-senescent (proliferating) human cells; format: cell-based; settings: normally proliferating foreskin cells; 30 μM, 3 days
Excerpt: Based on the results of Example 10 of WO2023-085787 A1, compounds that induce the death of senescent cells through a mechanism similar to LX-112, unlike existing senescent cell removers such as ABT-263, were screened based on HMGN1. […] The following test compounds were synthesized by and purchased from Medchemexpress, Selleckchem, Cayman, Medkoo, Sigma, Molport, Enzo, TCI, Santa Cruz, REONSIMI, Abcam, Alfa Aesar, APExBIO, BOCSCI, Merck, Thermo Fisher Scientific, R&D Systems, ChemFaces, Aobious, etc. […] In cells in which senescence was not induced by treatment with the control group (DMSO), the amount of HMGN1 above the effective value (sensitivity: 35 pg/ml), analysis limit, was not detected in both untreated and treated conditions with the test compound. On the other hand, in cells where senescence was induced by treatment with doxorubicin, the amount of HMGN1 was measured at 80 to 90 pg/ml. […]
(§1) After 3 days, cell viability was measured using CellTiter-Glo Luminescent Cell Viability Assay (Promega) or light microscopy.
Using the same method as Example 11, compounds that induce senescent cell death through a mechanism similar to that of LX-112 (ethaselen (1,2-[bis(1,2-benzisoselenazolone-3 (2H)-ketone)]ethane)) were screened based on HMGN1 and others. […] On the other hand, in cells senescent with doxorubicin, an amount of HMGN1 of […] was measured. […]

[2] = tested on: proliferating foreskin cells; assay: Survival of proliferating human cells treated with supernatant (secreted fluid) from death-induced cells, Example 13; format: cell-based; settings: 3 days; for viability at 30 µM: Homo sapiens, 72 h
Experimental: as §1
After treating cells with the test compound at a high concentration that induces the death of most cells in both non-senescence-induced and senescence-induced cells, the cells were washed three times with PBS to remove the test compound, and replaced with fresh medium and cultured for an additional 3 hours at the time when the compound has entered into the cell but has not yet induced cell death (approximately 1 to 3 hours after compound treatment). During this additional culture, by checking with an optical microscope, etc., the medium supernatants containing secreted fluid from normally proliferating and senescent cells in which cell death was induced were obtained. The obtained medium supernatant was replaced with the medium of normally proliferating and senescent cells, respectively, and cell survival rate was measured after 3 days.

[3] = tested on: doxorubicin-induced aged C57BL6J mice; assay: p16 and p21 mRNA in doxorubicin-aged mice, Example 22-2, Table 31; format: in vivo, mouse; settings: untreated aged = 100%
Experimental: (§2) Eight-week-old male C57BL6J mice (KRIBB Laboratory Animal Resource Center) were acclimated to the experimental environment for one week. Afterwards, the anticancer agent doxorubicin was administered intraperitoneally at a concentration of 10 mg/kg, inducing aging for more than 10 days. The aging-induced mice were randomly assigned to experimental and control groups. LX-403 was mixed with a 10% ethanol solution of PEG400 and administered orally at a concentration of 25 mg/kg or intradermally at a concentration of 1 μM for 21 days. LX-1801 was mixed in distilled water with 4% DMSO, 30% PEG300, and 5% Tween80 and administered intradermally at a concentration of 0.4 μM daily for 21 days. LX-2001 was mixed in PBS and administered intradermally at a concentration of 2 μM daily for 21 days. LX-2002 was mixed in distilled water with 4% DMSO, 30% PEG300, and 5% Tween80 and administered intradermally at a concentration of 2 μM daily for 21 days. […] LX-2005 was mixed in distilled water with 4% DMSO, 30% PEG300, and 5% Tween80 and administered intradermally at a concentration of 90 μM daily for 21 days. LX-2007 was mixed in distilled water with 4% DMSO, 30% PEG300, and 5% Tween80 and administered intradermally at a concentration of 90 μM daily for 21 days. […] LX-3002 was mixed in distilled water with 4% DMSO, 30% PEG300, and 5% Tween80 and administered orally at a concentration of 10 mg/kg daily for 21 days. […] LX-5411 was mixed in 5% phosphate-buffered saline (PBS) and administered orally at a concentration of 10 mg/kg daily for 21 days or intradermally at a concentration of 3 μM. LX-5701 was mixed in PBS and administered orally at a concentration of 360 mg/kg daily for 21 days. LX-6807 was mixed in saline and administered intraperitoneally at a concentration of 1 mg/kg daily for 21 days. The control group received only the solution in the same volume. After the end of drug administration, the methods described in each example below were performed.
Mice were sacrificed using the same method as in Example 7-2 of WO2023-085787 A1. RNA was extracted from organ tissues of each site, and cDNA synthesized was used for qRT-PCR and analysis. […] The mRNA amounts of p16 and p21 after aging induction were calculated as 100% and compared with the mRNA amounts of p16 and p21 after LX-5701 treatment.

[4] = tested on: mice with peritoneal fibrosis induced by chlorhexidine gluconate; assay: Chlorhexidine gluconate (CHG) peritoneal fibrosis in mice, Example 20; format: in vivo, mouse
Excerpt: The anti-fibrosis activity of LX-5701 was confirmed using the same method as in Example 6-2 of WO2023-085787 A1. The thickness of the peritoneal mesothelial cell layer was quantitatively evaluated in mice with peritoneal fibrosis induced by chlorhexidine gluconate (CHG) under untreated and LX-5701-treated conditions.

[5] = tested on: doxorubicin-induced aged C57BL6J mice; assay: SA-β-gal staining in doxorubicin-aged mice, Example 22-3, Table 32; format: in vivo, mouse; settings: staining area, untreated aged = 100
Experimental: as §2
Mice were sacrificed as described in Example 7-3 of WO2023-085787 A1, and tissue sections were prepared from each organ tissue site and stained for the aging-related marker SA-β-gal.

SMILES: COC(=O)c1ccc([C@H]2c3[nH]c4ccccc4c3C[C@H](C(=O)OC)N2C(=O)CCl)cc1 [LX-405]
- induced death of cells [1]: induced the death of most cells
- viability at 30 µM ([2]; supernatant from death-induced proliferating cells): 104%
- viability at 30 µM ([2]; supernatant from death-induced senescent cells): 100%
- Survival ([2]; supernatant from No Cells): 99.4 (±2.4) %

SMILES: O=C1C2CCN(CC2)C1CNC(=O)C(F)(F)F (stereo not drawn) [LX-5701]
- p16 mRNA (%), Kidney ([3]; Kidney): 78 (±7.7) %
- p21 mRNA (%), Kidney ([3]; Kidney): 75 (±5.8) %
- p16 mRNA (%), Liver ([3]; Liver): 62 (±7.5) %
- p21 mRNA (%), Liver ([3]; Liver): 64 (±11.7) %
- p16 mRNA (%), eWAT ([3]; eWAT): 55 (±11.5) %
- p21 mRNA (%), eWAT ([3]; eWAT): 71 (±8.8) %
- Submesothelial Thickness [4]: 41.8 (±7.5) μm
- SA-β-gal (%), Kidney ([5]; Kidney): 64 (±9.7) %
- SA-β-gal (%), Liver ([5]; Liver): 43 (±14.2) %
- SA-β-gal (%), Lung ([5]; Lung): 68 (±14.8) %
- SA-β-gal (%), eWAT ([5]; eWAT): 66 (±10.5) %
